Earlier results on 2 molecules are cited in patent publication US9943402B2, “Micropatterned intraocular implant” (InSight Innovations, LLC, priority 2008, dated 2018).

Each structure is given as a SMILES string.

This data set has as its system posterior capsule opacification (PCO). The conditions noted are these: topical treatment after phacoemulsification.

For the molecule `COc1ccc2c(c1)c(CC(=O)O)c(C)n2C(=O)c1ccc(Cl)cc1` [indomethacin], the “inhibition of PCO (in words)” value is “do not appear to inhibit PCO”.
With `O=C(O)Cc1ccccc1Nc1c(Cl)cccc1Cl` [diclofenac], the “inhibition of PCO (in words)” value is recorded as “do not appear to inhibit PCO”.
